Measurements taken from US7605154B2, “Substituted Thiazolo [4,5-d]pyrimidines as protein kinase inhibitors” (Janssen Pharmaceutica N.V., priority 2005, dated 2009).
Several values for one entry are separate records, joined by “and”; a condition that tells them apart may be missing. Identical values can stand only once.

Legend:
SK-OV-3 [1] = assay: Cell Proliferation Inhibition Assay (14C-thymidine incorporation), SK-OV-3; type: cell-based; details: Homo sapiens
Description: (§1) The ability of a test compound to inhibit unregulated cell proliferation may be determined by measuring incorporation of ^14C-labelled thymidine into newly synthesized DNA within cell lines derived from carcinomas originating from several tissues. Accordingly, the anti-proliferative effect of a compound on cells with a variety of phenotypes may be determined.
The carcinoma cells are trypsinized and counted. The cells (3000-8000 count) are added to each well of a 96-well CytoStar tissue culture treated scintillating microplate (Amersham #RPNQ0160) in complete medium (100 μL) and the plate is then incubated in complete medium for 24 hrs at 37° C. in an inert atmosphere containing 5% CO2. Test compound (1 μL) in 100% DMSO is added to the plate test-wells with DMSO only added to control-wells.
The plate contents are then discarded, the plate is washed twice with PBS (200 μL) and then PBS (200 μL) is added to each well. The plate is sealed and the degree of methyl ^14C-thyrnidine incorporation is quantified on a Packard Top Count.

EGFR = molecular target: T1, EGFR (Homo sapiens, UniProt P00533); assay: EGFR Kinase Assay; type: biochemical; details: GST-EGFR, 5 μM ATP
T1 construct: started at nucleotide 2189 (corresponding to amino acid 667) and ended at the termination codon; made in house; host or cells: Sf9 insect cells (baculovirus)
T1 sequence (P00533 667-1210 limits assumed): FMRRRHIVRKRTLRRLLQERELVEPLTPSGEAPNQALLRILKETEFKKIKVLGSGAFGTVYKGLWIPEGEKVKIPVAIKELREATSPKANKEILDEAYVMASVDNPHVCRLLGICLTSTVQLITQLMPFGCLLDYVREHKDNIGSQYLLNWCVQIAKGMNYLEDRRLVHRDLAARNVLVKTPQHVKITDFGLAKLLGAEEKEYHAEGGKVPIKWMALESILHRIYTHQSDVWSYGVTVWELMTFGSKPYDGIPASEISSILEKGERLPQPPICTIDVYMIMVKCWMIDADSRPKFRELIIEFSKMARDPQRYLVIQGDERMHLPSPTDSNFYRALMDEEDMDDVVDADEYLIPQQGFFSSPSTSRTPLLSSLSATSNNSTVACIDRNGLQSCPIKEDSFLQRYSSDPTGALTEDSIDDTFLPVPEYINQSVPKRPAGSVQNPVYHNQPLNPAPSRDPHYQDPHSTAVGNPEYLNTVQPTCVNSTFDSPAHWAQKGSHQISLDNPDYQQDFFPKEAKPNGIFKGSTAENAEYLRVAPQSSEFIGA
How it was run: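 Baculovirus/Sf9-expressed GST-EGFR with biotinylated polyGluTyr substrate, 5 μM ATP plus γ-33P-ATP, in 50 mM Tris pH 8.0, 10 mM MgCl2, 0.1 mM vanadate, 1 mM DTT; 1 h at 30 °C.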

SK-OV-3 [2] = assay: SK-OV-3 Cell Migration Inhibition; type: cell-based; details: several values in a cell are repeat determinations
HeLa = assay: Cell Proliferation Inhibition Assay (14C-thymidine incorporation), HeLa; type: cell-based; details: Homo sapiens
From the text: as §1
(§2) Carcinoma cell lines include those such as HeLa cervical adenocarcinoma (American Type Culture Collection (ATCC), Virginia, Cat. #CCL-2), A375 malignant melanoma (ATCC CRL-1619), SK-OV-3 ovarian adenocarcinoma (ATCC HTB-77), HCT-116 colon carcinoma (CCL-247), PC-3 prostate adenocarcinoma (ATCC CRL-1435), and MDA-MB-231 (Xenogen Corp.)
(§3) The carcinoma cells are trypsinized and counted. […]
(§4) An aliquot of a solution of Methyl ^14C-thymidine (56 mC/mmol) (NEN #NEC568 or Amersham #CFA532) and complete medium (20 uL to provide 0.2 μCi/well) is then added to each well and the plate is incubated for a third 24 hr period at 37° C. in an atmosphere containing 5% CO2. […] The plate is sealed and the degree of methyl ^14C-thyrnidine incorporation is quantified on a Packard Top Count.

HCT-116 = assay: Cell Proliferation Inhibition Assay (14C-thymidine incorporation), HCT-116; type: cell-based; details: Homo sapiens
From the text: as §1, §2, §3, §4

A375 = assay: Cell Proliferation Inhibition Assay (14C-thymidine incorporation), A375; type: cell-based; details: Homo sapiens, A-375
From the text: as §1, §2, §3, §4

Lyn kinase = molecular target: T2, Lyn kinase (Homo sapiens, UniProt P07948); assay: Lyn Kinase Assay; type: biochemical; details: test concentration of 1 μM
T2 construct: purchased Upstate biotechnology, Lake Placid, N.Y
T2 sequence (P07948 whole entry): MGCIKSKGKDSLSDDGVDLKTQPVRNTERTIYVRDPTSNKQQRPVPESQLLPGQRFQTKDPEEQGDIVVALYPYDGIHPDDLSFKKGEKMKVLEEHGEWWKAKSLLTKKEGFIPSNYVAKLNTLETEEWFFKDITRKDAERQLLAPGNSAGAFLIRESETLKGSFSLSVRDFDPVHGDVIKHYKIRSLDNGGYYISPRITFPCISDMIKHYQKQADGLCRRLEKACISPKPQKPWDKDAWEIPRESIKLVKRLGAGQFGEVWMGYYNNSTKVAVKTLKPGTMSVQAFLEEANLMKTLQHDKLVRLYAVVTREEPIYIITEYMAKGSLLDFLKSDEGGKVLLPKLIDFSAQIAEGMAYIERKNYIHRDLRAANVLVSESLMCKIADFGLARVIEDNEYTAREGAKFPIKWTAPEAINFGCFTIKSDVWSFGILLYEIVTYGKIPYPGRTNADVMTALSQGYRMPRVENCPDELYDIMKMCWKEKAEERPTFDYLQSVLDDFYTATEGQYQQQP
Description: A mixture of a 10× kinase buffer (500 mM MOPS at pH 7.5, 1 mM EGTA, 1 mM Sodium Vanadate, 1% β-mercaptoethanol and 100 mM Magnesium Acetate), ATP (5 μM final from a 10 mM stock), polyGluTyr (0.1 mg/mL final from a 1 mg/mL stock), γ-^33P ATP (10 μCi/μL stock) and water (20 μL/well) was added to each well of a Streptavidin Flashplate.
Test compound in 100% DMSO (0.5 μL) was added to the appropriate wells. Diluted Lyn kinase (human) (Upstate biotechnology, Lake Placid, N.Y) (diluted in a buffer consisting of 50 mM Tris at pH 7.5, 0.1 mM EGTA, Sodium Vanadate (0.1 mM), β-mercaptoethanol (0.1%) and 1 mg/mL bovine serum albumin) (2.5 μL) was added to the wells to initiate the reactions.
The reaction plates were incubated at 30° C. for 40 min. The reaction was terminated by the addition of a 3% phosphoric acid solution (5 μL). The reaction product (10 μL) was spotted onto a P30 filtermat and washed for 5 minutes in phosphoric acid (75 mM). The wash sequence was repeated two more times, followed with one final wash in methanol. The plates were then dried, sealed and read on the TopCount scintillation counter after adding 30 μL scintillation fluid.
Percent inhibition was derived according to the procedure described in Example 5. The results for those compounds tested are shown in Table 3 at a test concentration of 1 μM.

c-Abl kinase = molecular target: T3, c-Abl kinase (Homo sapiens, UniProt P00519); assay: c-Abl Kinase Assay; type: biochemical; details: test concentration of 1 μM; read-out: c-Abl percent inhibition
T3 construct: purchased Upstate Biotechnology, Lake Placid, N.Y
T3 sequence (P00519 whole entry): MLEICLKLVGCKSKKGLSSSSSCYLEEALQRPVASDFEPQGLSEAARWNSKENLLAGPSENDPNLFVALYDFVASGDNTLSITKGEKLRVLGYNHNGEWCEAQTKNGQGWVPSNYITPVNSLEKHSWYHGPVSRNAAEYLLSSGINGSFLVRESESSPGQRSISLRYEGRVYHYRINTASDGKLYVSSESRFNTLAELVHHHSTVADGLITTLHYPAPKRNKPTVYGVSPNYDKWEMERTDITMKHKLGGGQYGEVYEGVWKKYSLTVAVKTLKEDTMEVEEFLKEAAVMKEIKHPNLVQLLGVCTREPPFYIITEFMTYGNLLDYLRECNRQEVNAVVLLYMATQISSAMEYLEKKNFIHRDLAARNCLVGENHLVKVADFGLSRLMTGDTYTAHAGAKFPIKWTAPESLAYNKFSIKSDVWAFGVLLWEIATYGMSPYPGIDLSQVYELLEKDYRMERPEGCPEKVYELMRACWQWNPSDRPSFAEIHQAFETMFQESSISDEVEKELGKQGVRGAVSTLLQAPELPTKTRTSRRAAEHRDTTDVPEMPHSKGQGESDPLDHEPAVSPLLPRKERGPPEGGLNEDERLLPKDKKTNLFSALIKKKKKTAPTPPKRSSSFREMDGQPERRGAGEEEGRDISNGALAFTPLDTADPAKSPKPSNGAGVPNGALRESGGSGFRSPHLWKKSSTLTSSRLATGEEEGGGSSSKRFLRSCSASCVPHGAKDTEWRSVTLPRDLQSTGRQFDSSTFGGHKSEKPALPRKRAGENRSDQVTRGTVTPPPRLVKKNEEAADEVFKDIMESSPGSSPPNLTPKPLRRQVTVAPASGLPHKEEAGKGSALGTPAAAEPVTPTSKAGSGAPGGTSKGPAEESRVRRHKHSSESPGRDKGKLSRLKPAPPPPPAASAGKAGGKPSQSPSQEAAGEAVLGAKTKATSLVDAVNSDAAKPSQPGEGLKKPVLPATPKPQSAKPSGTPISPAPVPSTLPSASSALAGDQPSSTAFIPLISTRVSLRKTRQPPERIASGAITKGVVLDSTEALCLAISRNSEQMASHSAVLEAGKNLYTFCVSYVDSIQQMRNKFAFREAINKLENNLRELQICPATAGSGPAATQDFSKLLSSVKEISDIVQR
Description: A mixture of a 10× kinase buffer (80 mM MOPS at pH 7.0, 2 mM EDTA and 100 mM Magnesium Acetate), ATP (5 μM final from a 10 mM stock), a peptide […] (50 μM final from a 0.5 mM stock), γ-^33P ATP (10 μCi/μL stock) and water is added to each well (20 μl/well) of a Streptavidin Flashplate.
Test compound in 100% DMSO (0.5 μL) is added to the appropriate wells. Diluted c-Abl kinase (human) (Upstate Biotechnology, Lake Placid, N.Y.) (diluted in a buffer consisting of 20 mM MOPS at pH 7.0, 1 mM EDTA, β-mercaptoethanol (0.1%), Brij-35 (0.01%), glycerol (5%) and 1 mg/ml bovine serum albumin) (2.5 μL) is added to the wells to initiate the reactions.
The reaction plates are incubated at 30° C. for 40 min. The reaction is terminated by the addition of a 3% phosphoric acid solution (5 μL). The reaction product (10 μL) is spotted onto a P30 filtermat and is washed for 5 minutes in phosphoric acid (75 mM). The wash sequence is repeated two more times and is followed with one final wash in methanol. The plates are then dried, sealed and read on the TopCount scintillation counter after 30 μL scintillation fluid is added.
The 1% percent inhibition value for Compound 64 was derived according to the procedure described in Example 5 at a test concentration of 1 μM.

c-Src kinase = molecular target: T4, c-Src kinase (Homo sapiens, UniProt P12931); assay: c-Src Kinase Assay; type: biochemical; details: test concentration of 1 μM
T4 construct: purchased Upstate Biotechnology, Lake Placid, N.Y
T4 sequence (P12931 whole entry): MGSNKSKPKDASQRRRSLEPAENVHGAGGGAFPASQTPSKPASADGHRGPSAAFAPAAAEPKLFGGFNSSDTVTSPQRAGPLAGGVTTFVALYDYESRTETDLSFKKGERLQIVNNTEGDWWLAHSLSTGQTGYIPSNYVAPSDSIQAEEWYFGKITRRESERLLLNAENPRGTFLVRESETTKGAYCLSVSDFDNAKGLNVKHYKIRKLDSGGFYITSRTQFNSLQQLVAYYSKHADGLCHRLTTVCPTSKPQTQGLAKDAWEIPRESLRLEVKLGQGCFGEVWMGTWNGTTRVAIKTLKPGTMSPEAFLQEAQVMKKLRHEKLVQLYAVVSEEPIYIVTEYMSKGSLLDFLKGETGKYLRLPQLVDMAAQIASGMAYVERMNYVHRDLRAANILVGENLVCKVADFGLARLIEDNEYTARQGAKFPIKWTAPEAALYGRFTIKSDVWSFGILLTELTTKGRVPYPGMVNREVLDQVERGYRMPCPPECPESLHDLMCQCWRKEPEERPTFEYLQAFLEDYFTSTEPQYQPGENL
Description: A mixure of a 10× kinase buffer (80 mM MOPS at pH 7.0, 2 mM EDTA and 100 mM Magnesium Chloride), ATP (5 μM final from a 10 mM stock), a Cdc2 peptide […] (100 μM final from a 2.5 mM stock), γ-^33P ATP (10 μCi/μL stock) and water (20 μL/well) was added to each well of a Streptavidin Flashplate.
Test compound in 100% DMSO (0.5 μL) was added to the appropriate wells. Diluted c-Src kinase (human) (Upstate Biotechnology, Lake Placid, N.Y.) (diluted in a buffer consisting of 20 mM MOPS at pH 7.0, 1 mM EDTA, β-mercaptoethanol (0.1%), Brij-35 (0.01%), glycerol (5%), and 1 mg/mL bovine serum albumin) (2.5 μL) was added to the wells to initiate the reactions. The reaction plates were incubated at 30° C. for 40 min. The reaction was terminated by the addition of a 3% phosphoric acid solution (5 μL). The reaction product (10 μL) was spotted onto a P30 filtermat and washed for 5 minutes in phosphoric acid (75 mM). The wash sequence was repeated two more times, followed with one final wash in methanol. The plates were then dried, sealed and read on the TopCount scintillation counter after adding 30 μL scintillation fluid.
Percent inhibition was derived according to the procedure described in Example 5. The results for those compounds tested are shown in Table 2 at a test concentration of 1 μM.

HER-2 = molecular target: T5, HER-2 (Homo sapiens, UniProt P04626); assay: HER-2 Kinase Assay; type: biochemical; details: GST-HER2, 1 μM ATP
T5 construct: the nucleotides encoding amino acids 679 to 1255 of HER-2; HIS6-Thrombin (His6 tag with thrombin site) (N); purchased Proqinase (Freiburg, Germany)
T5 sequence (P04626 679-1255): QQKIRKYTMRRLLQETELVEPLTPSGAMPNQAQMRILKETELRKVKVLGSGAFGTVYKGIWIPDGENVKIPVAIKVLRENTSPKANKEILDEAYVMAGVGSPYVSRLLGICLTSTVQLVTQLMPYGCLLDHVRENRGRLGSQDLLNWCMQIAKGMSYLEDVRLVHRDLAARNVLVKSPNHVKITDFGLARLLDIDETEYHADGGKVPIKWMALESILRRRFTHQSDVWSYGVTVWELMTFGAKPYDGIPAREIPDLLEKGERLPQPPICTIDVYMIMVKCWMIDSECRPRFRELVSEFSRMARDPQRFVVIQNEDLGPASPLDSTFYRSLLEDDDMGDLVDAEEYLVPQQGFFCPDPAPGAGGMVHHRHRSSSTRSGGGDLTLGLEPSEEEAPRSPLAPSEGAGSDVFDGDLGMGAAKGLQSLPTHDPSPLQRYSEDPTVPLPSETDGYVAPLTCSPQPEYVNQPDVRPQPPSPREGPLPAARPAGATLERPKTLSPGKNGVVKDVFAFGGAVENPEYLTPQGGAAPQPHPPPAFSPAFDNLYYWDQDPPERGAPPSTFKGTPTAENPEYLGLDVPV
Description: The HER-2 kinase used was purified at Proqinase (Freiburg, Germany) from a construct that consisted of a fusion of GST (Glutathione-S-Transferase), HIS6-Thrombin and the nucleotides encoding amino acids 679 to 1255 of HER-2.
A mixture of a 10× kinase reaction buffer (600 mM Hepes at pH 7.5, 30 mM Magnesium Chloride, 0.03 mM Sodium Vanadate and […] PEG 20,000), DTT (1.2 mM final from a 10 mM stock), ATP (1 μM from a 10 mM stock), biotinylated polyGluTyr (1.5 ng/μL final from stock of 1 μg/μL prepared by Upstate Biotechnologies, Lake Placid, N.Y.), Manganese Chloride (3 mM final from a 1 M stock), γ-^33P-ATP (10 μCi/μL stock) and water (70 μL/well) was added to each well of a Streptavidin Flashplate (Cat. # SMP103, NEN, Boston, Mass.).
Test compound stock (1 μL) was added to the appropriate wells. Diluted GSTHER2 kinase (6.7 ng/μL diluted into 50 mM Tris-HCl at pH 8.0 and 0.1% bovine serum albumin) (30 μL) was added (total volume of 200 ng/well) to initiate the reactions.
The reaction plates were incubated at 30° C. for 1 hr. The reaction was terminated by aspirating the reaction mixture from the plate wells and washing the wells three times with a 1×PBS stop buffer (300 μL) and 100 mM EDTA. After the final wash, the same stop buffer (200 μL) was again added to the wells. The plates were then sealed and read on the TopCount scintillation counter. […]

**Q.** `CN(C)CCc1ccc(Nc2nc3ncnc(Nc4ccc(F)c(Cl)c4)c3s2)cc1` [Cpd 11, N^7-(3-chloro4-fluoro-phenyl)-N^2-[4-(2-dimethylamino-ethyl)-phenyl]-thiazolo[4,5-d]pyrimidine-2,7-diamine] was tested. Which IC50 (SK-OV-3 [1]) did it give?
**A.** 600 nM

**Q.** What about the IC50 (EGFR) of the same compound?
**A.** 12.8 nM

**Q.** Which results are given for `Fc1ccc(Nc2ncnc3nc(Nc4ccc(CN5CCCC5)cc4)sc23)cc1Cl` [Cpd 17, N^7-(3-chloro-4-fluoro-phenyl)-N^2-(4-pyrrolidin-1-ylmethyl-phenyl)-thiazolo[4,5-d]pyrimidine-2,7-diamine]?
**A.** IC50 (SK-OV-3 [1]): 620 nM; IC50 (EGFR): 4.2 nM

**Q.** Which results are given for `Fc1ccc(Nc2ncnc3nc(Nc4ccc(CN5CCOCC5)cc4)sc23)cc1Cl` [Cpd 18, N^7-(3-chloro-4-fluoro-phenyl)-N^2-(4-morpholin-4-ylmethyl-phenyl)-thiazolo[4,5-d]pyrimidine-2,7-diamine]?
**A.** IC50 (SK-OV-3 [2]; Homo sapiens, SK-OV-3, SK-OV-3 migration): 186 nM; IC50 (SK-OV-3 [2]; SK-OV-3 migration): 156 nM and 141 nM; IC50 (HeLa): > 100000 nM; IC50 (EGFR): 15.4 nM; IC50 (HCT-116): > 100000 nM; IC50 (A375): > 100000 nM

**Q.** Which inhibition at 1 µM (Lyn kinase) does the source give for `C#Cc1cccc(Nc2ncnc3nc(Nc4ccc(CNC[C@H]5CCCO5)cc4)sc23)c1` [Cpd 64, N^7-(3-ethynyl-phenyl)-N^2-(4-{[(2R)-(tetrahydro-furan-2-ylmethyl)-amino]-methyl}-phenyl)-thiazolo[4,5-d]pyrimidine-2,7-diamine] here?
**A.** 17%

**Q.** What about the inhibition at 1 µM (c-Abl kinase) of the same compound?
**A.** 1%

**Q.** What about the IC50 (EGFR) of the same compound?
**A.** 3.96 nM

**Q.** And the inhibition at 1 µM (c-Src kinase)?
**A.** 21%

**Q.** How did the inhibition at 1 µM (Lyn kinase) turn out when `C#Cc1cccc(Nc2ncnc3nc(Nc4ccc(CNCC(O)CO)cc4)sc23)c1` (stereo not drawn) [Cpd 66, 3-{4-[7-(3-ethynyl-phenylamino)-thiazolo[4,5-d]pyrimidin-2-ylamino]-benzylamino}-propane-1,2-diol] was run?
**A.** 25%

**Q.** And the IC50 (EGFR)?
**A.** 7.28 nM

**Q.** And the inhibition at 1 µM (c-Src kinase)?
**A.** 15%

**Q.** How did the IC50 (HeLa) turn out when `CN1CCN(Cc2ccc(Nc3nc4ncnc(Nc5ccc(OCc6cccc(F)c6)c(Cl)c5)c4s3)cc2)CC1` [Cpd 68, N^7-[3-chloro-4-(3-fluoro-benzyloxy)-phenyl]-N^2-[4-(4-methyl-piperazin-1-ylmethyl)-phenyl]-thiazolo[4,5-d]pyrimidine-2,7-diamine] was run?
**A.** 2190 nM

**Q.** And the IC50 (EGFR)?
**A.** 20.3 nM

**Q.** And the IC50 (HER-2)?
**A.** 276 nM

**Q.** And the IC50 (HCT-116)?
**A.** 3080 nM

**Q.** What about the IC50 (A375) of the same compound?
**A.** 2030 nM

**Q.** Which results are given for `CN1CCN(Cc2ccc(Nc3nc4ncnc(Nc5ccc(Oc6ccccc6)cc5)c4s3)cc2)CC1` [Cpd 94, N^2-[4-(4-methyl-piperazin-1-ylmethyl)-phenyl]-N^7-(4-phenoxy-phenyl)-thiazolo[4,5-d]pyrimidine-2,7-diamine]?
**A.** IC50 (EGFR): 319 nM; IC50 (HER-2): 1870 nM
